Legend:
mu opioid receptor = biological target: T1, mu opioid receptor (Rattus norvegicus, UniProt P33535); assay: Rat Brain Mu Opioid Receptor Binding Assay; details: rat forebrain membrane preparation; [3H]DAMGO, 25° C., 2.5 h
T1 construct: Following incubation with the mu selective peptide ligand, ˜0.8 nM [^3H]DAMGO; from tissue; host or cells: rat forebrain homogenate (male Wistar rats), particulate membrane preparation

delta opioid receptor = biological target: T2, delta opioid receptor (Rattus norvegicus, UniProt P33533); assay: Rat Brain Delta Opioid Receptor Binding Assay; details: rat forebrain membrane preparation; [3H]DPDPE or [3H]naltrindole, 25° C., 2.5 h
T2 construct: from tissue; host or cells: rat forebrain homogenate (male Wistar rats), particulate membrane preparation
T2 sequence (P33533 whole entry): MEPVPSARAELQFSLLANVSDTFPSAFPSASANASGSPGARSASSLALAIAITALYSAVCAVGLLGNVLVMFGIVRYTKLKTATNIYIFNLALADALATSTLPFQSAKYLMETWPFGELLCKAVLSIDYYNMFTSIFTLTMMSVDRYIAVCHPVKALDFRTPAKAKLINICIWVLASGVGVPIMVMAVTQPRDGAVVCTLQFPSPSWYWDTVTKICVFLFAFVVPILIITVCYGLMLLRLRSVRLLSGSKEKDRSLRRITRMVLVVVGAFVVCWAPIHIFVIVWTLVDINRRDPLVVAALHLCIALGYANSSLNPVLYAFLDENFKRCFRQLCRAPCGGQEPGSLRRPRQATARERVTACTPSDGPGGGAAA

T1 sequence (P33535 whole entry): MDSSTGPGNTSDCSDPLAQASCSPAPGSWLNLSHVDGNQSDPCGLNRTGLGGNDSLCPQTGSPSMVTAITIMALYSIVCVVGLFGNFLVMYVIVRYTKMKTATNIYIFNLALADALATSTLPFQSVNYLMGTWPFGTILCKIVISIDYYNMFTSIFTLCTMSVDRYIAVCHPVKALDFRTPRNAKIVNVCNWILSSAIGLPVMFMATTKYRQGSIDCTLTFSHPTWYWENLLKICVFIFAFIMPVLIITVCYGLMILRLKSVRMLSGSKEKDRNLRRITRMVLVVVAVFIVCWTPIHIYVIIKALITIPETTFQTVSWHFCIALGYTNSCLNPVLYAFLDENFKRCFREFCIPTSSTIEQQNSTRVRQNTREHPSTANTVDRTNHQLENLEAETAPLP

| SMILES | Ki (mu opioid receptor) | Ki (delta opioid receptor) |
| --- | --- | --- |
| CN(CCc1ccccc1)C(=O)c1ccc2c(c1)Oc1ccccc1N2C1CC2CCC(C1)N2C (stereo not shown) [Compound 6a, 10-(8-Methyl-8-aza-bicyclo[3.2.1]oct-3-yl)-10H-phenoxazine-3-carboxylic acid methyl-phenethyl-amide] | 819 nM | 575 nM |
| CC(=O)Nc1ccccc1-c1ccc2c(c1)Sc1ccccc1N2C1C[C@H]2CC[C@@H](C1)N2CCc1ccccc1 (mixture of isomers) [Compound 14i, N-{2-[10-(8-Phenethyl-8-aza-bicyclo[3.2.1]oct-3-yl)-10H-phenothiazin-3-yl]-phenyl}-acetamide] | 599 nM | 1600 nM |
| CC(=O)Nc1ccccc1-c1ccc2c(c1)Sc1ccccc1N2C1C[C@H]2CC[C@@H](C1)N2Cc1ncc[nH]1 (mixture of isomers) [Compound 15i, N-(2-{10-[8-(1H-Imidazol-2-ylmethyl)-8-aza-bicyclo[3.2.1]oct-3-yl]-10H-phenothiazin-3-yl}-phenyl)-acetamide] | 169 nM | 630 nM |
| COC(=O)c1ccc2c(c1)Oc1ccccc1N2C1CC2CCC(C1)N2C (stereo not shown) [Compound 2a, 10-(8-Methyl-8-aza-bicyclo[3.2.1]oct-3-yl)-10H-phenoxazine-3-carboxylic acid methyl ester] | 5150 nM | 697 nM |
| c1ccc(CCN2[C@@H]3CC[C@H]2CC(N2c4ccccc4Oc4cc(-c5nnn[nH]5)ccc42)C3)cc1 (stereo partly drawn) [Compound 7b, Endo-10-(8-Phenethyl-8-aza-bicyclo[3.2.1]oct-3-yl)-3-(1H-tetrazol-5-yl)-10H-phenoxazine] | 288 nM | 5480 nM |
| CC(C)=CCN1[C@@H]2CC[C@H]1CC(N1c3ccccc3Sc3cc(-c4ccncc4)ccc31)C2 (mixture of isomers) [Compound 10i, 10-[8-(3-Methyl-but-2-enyl)-8-aza-bicyclo[3.2.1]oct-3-yl]-3-pyridin-4-yl-10H-phenothiazine] | 317 nM | 949 nM |
| CN1C2CCC1CC(N1c3ccccc3Oc3cc(-c4noc(=O)[nH]4)ccc31)C2 (stereo not shown) [Compound 2h, 3-[10-(8-Methyl-8-aza-bicyclo[3.2.1]oct-3-yl)-10H-phenoxazin-3-yl]-4H-[1,2,4]oxadiazol-5-one] | 2890 nM | 598 nM |
| Brc1ccc2c(c1)Sc1ccccc1N2C1C[C@H]2CC[C@@H](C1)N2 (mixture of isomers) [Compound 4i, 10-(8-Aza-bicyclo[3.2.1]oct-3-yl)-3-bromo-10H-phenothiazine] | 6610 nM | 881 nM |
| N#Cc1ccc2c(c1)Oc1ccccc1N2[C@H]1C[C@H]2CC[C@@H](C1)N2 [Compound 8b, Endo-10-(8-Aza-bicyclo[3.2.1]oct-3-yl)-10H-phenoxazine-3-carbonitrile] | > 10000 nM | 1900 nM |
| O=c1[nH]c(-c2ccc3c(c2)Oc2ccccc2N3[C@H]2C[C@H]3CC[C@@H](C2)N3CCc2ccccc2)no1 [Compound 7d, Endo-3-[10-(8-Phenethyl-8-aza-bicyclo[3.2.1]oct-3-yl)-10H-phenoxazin-3-yl]-4H-[1,2,4]oxadiazol-5-one] | 123 nM | 2630 nM |
| c1csc(CN2[C@@H]3CC[C@H]2CC(N2c4ccccc4Sc4cc(-c5ccncc5)ccc42)C3)c1 (mixture of isomers) [Compound 12i, 3-Pyridin-4-yl-10-(8-thiophen-2-ylmethyl-8-aza-bicyclo[3.2.1]oct-3-yl)-10H-phenothiazine] | 1450 nM | 491 nM |
| c1cncc(-c2ccc3c(c2)Sc2ccccc2N3C2C[C@H]3CC[C@@H](C2)N3Cc2ccoc2)c1 (mixture of isomers) [Compound 6i, 10-(8-Furan-3-ylmethyl-8-aza-bicyclo[3.2.1]oct-3-yl)-3-pyridin-3-yl-10H-phenothiazine] | 1060 nM | 282 nM |
| C=CCN1[C@@H]2CC[C@H]1CC(N1c3ccccc3Sc3cc(-c4ccccc4NC(C)=O)ccc31)C2 (mixture of isomers) [Compound 13i, N-{2-[10-(8-Allyl-8-aza-bicyclo[3.2.1]oct-3-yl)-10H-phenothiazin-3-yl]-phenyl}-acetamide] | 3740 nM | 552 nM |
| c1ccc(CN2[C@@H]3CC[C@H]2CC(N2c4ccccc4Sc4cc(-c5cccnc5)ccc42)C3)nc1 (mixture of isomers) [Compound 9i, 3-Pyridin-3-yl-10-(8-pyridin-2-ylmethyl-8-aza-bicyclo[3.2.1]oct-3-yl)-10H-phenothiazine] | 538 nM | 649 nM |

Reference: patent US7652005B2, “Tricyclic δ-opioid modulators” (Janssen Pharmaceutica N.V., priority 2004, dated 2010)
